Source: patent US11370825B2, “Polypeptides, cells, and methods involving engineered CD16” (Regents of the University of Minnesota, priority 2014, dated 2022)

Key:
NK92 cells = test: NK92 cell activation: CD107a up-regulation on incubation with Raji cells with or without rituximab, flow cytometry; type: cell-based, human
Experimental: (§1) FIG. 5. Effects of the engineered S197P mutation on CD16a function. (A) NK92 cells expressing CD16a or CD16a/S197P at equivalent levels (left panel) were treated with monomeric human IgG (0-20 μg/ml). As controls, cells were also treated with monomeric human IgA (20 μg/ml), and NK92 parent cells were treated with IgG (20 μg/ml) (bar). Antibody binding was determined by flow cytometry, as described in Materials and Methods. […] Statistical significance is indicated as *P<0.05 versus IgG (0 μg/ml), IgA, or NK92 parent cells+IgG. (B) Mock transduced NK92 cells or NK92 cells expressing CD16a or CD16a/S197P were incubated in the absence (Unstim.) or presence of Raji cells treated with or without anti-CD20 rituximab for the indicated time points at 37° C. NK92 cell activation was assessed by the up-regulation in CD107a staining by flow cytometry. For the histogram plots, the x-axis=Log 10 fluorescence and the y-axis=cell number. Data are representative of at least 3 independent experiments.
HEK293 and NK92 cells in RPMI 1640 media (Mediatech, Inc., Manassas, Va.) were activated with 15 ng/ml and 100 ng/ml, respectively, PMA for 30 minutes at 37° C. NK92 cells were activated with IL-12 (PeproTech Inc, Rocky Hill, N.J.) and IL-18 (R&D Systems, Inc., Minneapolis, Minn.) at 100 ng/ml and 400 ng/ml, respectively, for the indicated time points. NK92 cell activation through CD16a was mediated by their incubation with the CD20-positive Burkitt's lymphoma cell line Raji (ATCC, grown according to the depository's instructions) (1:1 ratio) treated with the anti-CD20 mAb rituximab (1 μg/ml) (Genentech, Inc., South San Francisco, Calif.), as described previously (Romee et al., 2013, Blood 121:3599-3608). Excess rituximab was removed by washing the Raji cells. In some experiments, NK92 cells were pre-incubated for 30 minutes with the selective ADAM17 inhibitor BMS566394 (5 μM) (Bristol-Myers Squibb Company, Princeton, N.J.). […]
(§2) For cell staining, nonspecific antibody binding sites were blocked and cells were stained with the indicated antibodies and examined by flow cytometry, as previously described (Wang et al., 2013, Biochim Biophys Acta. 1833:680-685; Romee et al., 2013, Blood 121:3599-3608). […] Human CD16 was detected by the mAbs 3G8 (BioLegend, Inc., San Diego, Calif.) and DJ130c (Santa Cruz Biotech, Santa Cruz, Calif.). CD107a was detected by the mAb H4A3 (Biolegend, Inc., San Diego, Calif.). ADAM17 was detected by the mAbs M220 (Doedens et al., 2000, J Biol Chem. 275:14598-14607), 111633, and 111623 (R&D Systems, Inc., Minneapolis, Minn.). Human L-selectin was detected by the mAb LAM1-116 (Ancell Corp., Stillwater, Minn.). […]

monomeric human IgG = test: Antibody binding assay: monomeric human IgG and IgA binding to NK92 cells expressing CD16a or CD16a/S197P; conditions: NK92 cells expressing the receptor; IgA 20 μg/ml
Experimental: as §1
Cell binding to monomeric human IgG and IgA (Sigma-Aldrich, St. Louis, Mo.) was performed as previously described with some modifications (Dong et al., 2014, Arthritis Rheumatol. 66:1291-1299). […] The cells were washed and then immediately analyzed by flow cytometry.

iPSC-derived NK cells = test: Cell surface CD16a on iPSC-derived NK cells stimulated with K562 cells, flow cytometry; type: cell-based, human; conditions: iPSC-derived NK cells with K562 target cells (2:1 ratio), four hours at 37° C.
ADAM17 = test: Anti-ADAM17 mAb staining of NK92 cells expressing CD16a or CD16a/S197P, flow cytometry; type: cell-based, human; conditions: NK92 cells expressing CD16a compared with CD16a/S197P; multiple anti-ADAM17 mAbs
Experimental: FIG. 4. Effects of the engineered S197P mutation on CD16a shedding in NK cells. NK92 cells transduced with empty vector (vector only), CD16a, or CD16a/S197P were treated without (Unstim.) or with PMA (100 ng/ml) for 30 minutes at 37° C. (A), with IL-12 and IL-18 (100 ng/ml and 400 ng/ml, respectively) for 24 hours at 37° C. (B), or with Raji cells and rituximab for 60 minutes at 37° C. (C). Cell surface levels of CD16a were determined by flow cytometry. Isotype-matched negative control antibody staining is indicated by a dotted line. […] Soluble CD16a levels were determined by ELISA. […] For all histogram plots, the x-axis=Log 10 fluorescence, the y-axis=cell number, and the data are representative of at least 3 independent experiments.
as §2, with “Minn.).” for “Minn.). Human L-selectin was detected by the mAb LAM1-116 (Ancell Corp., Stillwater, Minn.).”

[1] = NK92 cells incubated with Raji cells alone
[2] = NK92 cells incubated with Raji cells treated with rituximab

CD16a/S197P: Human CD16a (FcγRIIIa, SEQ ID NO:1) with serine-197 substituted by proline in the membrane proximal cleavage region; expressed recombinantly in cells
up-regulation of CD107a (NK92 cells; [1]): marginally up-regulated
up-regulation of CD107a (NK92 cells; [2]): considerable up-regulation
monomeric IgA binding (control) (monomeric human IgG): essentially background levels
cell surface expression of CD16a after stimulation (iPSC-derived NK cells): remained stable
ADAM17 cell surface levels (ADAM17): identical cell surface levels

CD16a: Wild-type human IgG Fc receptor CD16a (FcγRIIIa), valine allelic variant, recombinant comparator [reference compound]
up-regulation of CD107a (NK92 cells; [1]): marginally up-regulated
up-regulation of CD107a (NK92 cells; [2]): considerable up-regulation
monomeric IgA binding (control) (monomeric human IgG): essentially background levels
cell surface expression of CD16a after stimulation (iPSC-derived NK cells): marked down-regulation
ADAM17 cell surface levels (ADAM17): identical cell surface levels
